Values after ≈ are worked out from the molar mass of the structure shown.
Assays:
Format in all cases: cell-based
[1] = system: Mannheimia haemolytica MH 6357 (M7/2, reference strain, cattle infection strain); test: MIC, broth-microdilution (CLSI VET01-A4), strain MH 6357; conditions: Mannheimia haemolytica strain MH 6357, broth-microdilution; unit assumed
Protocol: (§1) For example, representative compounds were tested against ***, Mannheimia haemolytica and Pasteurella multocida, using the conventional broth-dilution assay.
(§2) The Minimum inhibitory concentrations (MIC) of compounds according to the invention for a number of veterinary bacterial pathogens were determined by the broth-microdilution method according to CLSI document VET01-A4.
(§3) Microdilution trays containing a doubling dilution series of the test compound were used for the tests. The MIC results were interpreted according to the CLSI documents VET01-S3. The lowest concentration of compound at which no visible growth (i.e. no turbidity) detected by the unaided eye was recorded as the MIC.

[2] = system: Mannheimia haemolytica MH 6374 (ATCC 33396, reference strain); test: MIC, broth-microdilution (CLSI VET01-A4), strain MH 6374; conditions: Mannheimia haemolytica strain MH 6374, broth-microdilution; unit assumed
Protocol: as §1, §2, §3

[3] = system: Mannheimia haemolytica MH 10720 (154, BRD field isolate); test: MIC, broth-microdilution (CLSI VET01-A4), strain MH 10720; conditions: Mannheimia haemolytica strain MH 10720, broth-microdilution; unit assumed
Protocol: as §1, §2, §3

[4] = system: Mannheimia haemolytica MH 12587 (1071, BRD field isolate, macrolide-resistance: erm+, E+); test: MIC, broth-microdilution (CLSI VET01-A4), strain MH 12587; conditions: Mannheimia haemolytica strain MH 12587, broth-microdilution; unit assumed
Protocol: as §1, §2, §3

[5] = system: Mannheimia haemolytica MH 13065 (XB0446-6003.9, BRD field isolate); test: MIC, broth-microdilution (CLSI VET01-A4), strain MH 13065; conditions: Mannheimia haemolytica strain MH 13065, broth-microdilution; unit assumed
Protocol: as §1, §2, §3

[6] = system: Mannheimia haemolytica MH 13093 (XB0472-6014.1, BRD field isolate); test: MIC, broth-microdilution (CLSI VET01-A4), strain MH 13093; conditions: Mannheimia haemolytica strain MH 13093, broth-microdilution; unit assumed
Protocol: as §1, §2, §3

[7] = system: Pasteurella multocida PM 6267 (P 2225 (L386), reference strain, mouse infection strain); test: MIC, broth-microdilution (CLSI VET01-A4), strain PM 6267; conditions: Pasteurella multocida strain PM 6267, broth-microdilution; unit assumed
Protocol: as §1, §2, §3

[8] = system: Pasteurella multocida PM 10775 (080130003051, BRD field isolate); test: MIC, broth-microdilution (CLSI VET01-A4), strain PM 10775; conditions: Pasteurella multocida strain PM 10775, broth-microdilution; unit assumed
Protocol: as §1, §2, §3

[9] = system: Pasteurella multocida PM 12080 (IV102277-0093, BRD field isolate); test: MIC, broth-microdilution (CLSI VET01-A4), strain PM 12080; conditions: Pasteurella multocida strain PM 12080, broth-microdilution; unit assumed
Protocol: as §1, §2, §3

| Structure (SMILES) | MIC MH 6357 [1] | MIC MH 6374 [2] | MIC MH 10720 [3] | MIC MH 12587 [4] | MIC MH 13065 [5] | MIC MH 13093 [6] | MIC PM 6267 [7] | MIC PM 10775 [8] | MIC PM 12080 [9] |
| --- | --- | --- | --- | --- | --- | --- | --- | --- | --- |
| CC[C@H](C)[C@H](NC(=O)c1ccc(C#Cc2ccc(CN(CC)CC)cc2)cc1)C(=O)NO [Compound 118] | 6.3 µg/mL (≈ 14.5 µM) | 12.5 µg/mL (≈ 28.7 µM) | 3.1 µg/mL (≈ 7.12 µM) | 25 µg/mL (≈ 57.4 µM) | 12.5 µg/mL (≈ 28.7 µM) | 12.5 µg/mL (≈ 28.7 µM) | 0.4 µg/mL (≈ 0.918 µM) | 0.2 µg/mL (≈ 0.459 µM) | 1.6 µg/mL (≈ 3.67 µM) |
| CC(C)[C@H](NC(=O)c1ccc(C#Cc2ccc(CNCC#N)cc2)cc1)C(=O)NO [Compound 204] | 0.4 µg/mL (≈ 0.989 µM) | 0.4 µg/mL (≈ 0.989 µM) | ≤ 0.1 µg/mL | 0.8 µg/mL (≈ 1.98 µM) | 0.2 µg/mL (≈ 0.494 µM) | 0.4 µg/mL (≈ 0.989 µM) | ≤ 0.1 µg/mL | ≤ 0.1 µg/mL | ≤ 0.1 µg/mL |
| O=C(N[C@@H](CO)C(=O)NO)c1ccc(C#Cc2ccc(CN3CCN(c4ccccc4)CC3)cc2)cc1 [Compound 81] | 3.1 µg/mL (≈ 6.22 µM) | 3.1 µg/mL (≈ 6.22 µM) | 0.8 µg/mL (≈ 1.6 µM) | 25 µg/mL (≈ 50.1 µM) | 3.1 µg/mL (≈ 6.22 µM) | 6.3 µg/mL (≈ 12.6 µM) | ≤ 0.1 µg/mL | ≤ 0.1 µg/mL | 0.8 µg/mL (≈ 1.6 µM) |
| CC[C@H](C)[C@H](NC(=O)c1ccc(C#Cc2ccc(CN3CCc4ccccc4C3)cc2)cc1)C(=O)NO [Compound 124] | 6.3 µg/mL (≈ 12.7 µM) | 12.5 µg/mL (≈ 25.2 µM) | 3.1 µg/mL (≈ 6.25 µM) | 25 µg/mL (≈ 50.4 µM) | 12.5 µg/mL (≈ 25.2 µM) | 12.5 µg/mL (≈ 25.2 µM) | 3.1 µg/mL (≈ 6.25 µM) | 0.8 µg/mL (≈ 1.61 µM) | 3.1 µg/mL (≈ 6.25 µM) |
| C=CCNCc1cccc(C#Cc2ccc(C(=O)N[C@H](C(=O)NO)[C@@H](C)CC)cc2)c1 [Compound 49] | 12.5 µg/mL (≈ 29.8 µM) | 12.5 µg/mL (≈ 29.8 µM) | 6.3 µg/mL (≈ 15 µM) | 25 µg/mL (≈ 59.6 µM) | 12.5 µg/mL (≈ 29.8 µM) | 12.5 µg/mL (≈ 29.8 µM) | 3.1 µg/mL (≈ 7.39 µM) | 0.8 µg/mL (≈ 1.91 µM) | 12.5 µg/mL (≈ 29.8 µM) |
| CC(C)NCc1ccc(C#Cc2ccc(C(=O)N[C@H](C(=O)NO)C(C)C)cc2)cc1 [Compound 93] | 6.3 µg/mL (≈ 15.5 µM) | 6.3 µg/mL (≈ 15.5 µM) | 3.1 µg/mL (≈ 7.61 µM) | 12.5 µg/mL (≈ 30.7 µM) | 6.3 µg/mL (≈ 15.5 µM) | 12.5 µg/mL (≈ 30.7 µM) | ≤ 0.1 µg/mL | ≤ 0.1 µg/mL | 1.6 µg/mL (≈ 3.93 µM) |
| CC[C@H](C)[C@H](NC(=O)c1ccc(C#Cc2ccc(CNC3CC3)cc2)cc1)C(=O)NO [Compound 112] | 1.6 µg/mL (≈ 3.81 µM) | 0.4 µg/mL (≈ 0.953 µM) | ≤ 0.1 µg/mL | 0.8 µg/mL (≈ 1.91 µM) | 0.4 µg/mL (≈ 0.953 µM) | 0.4 µg/mL (≈ 0.953 µM) | ≤ 0.1 µg/mL | ≤ 0.1 µg/mL | 0.2 µg/mL (≈ 0.477 µM) |
| CC(C)NCc1ccc(C#Cc2ccc(C(=O)N[C@@H](CO)C(=O)NO)cc2)cc1 [Compound 72] | 12.5 µg/mL (≈ 31.6 µM) | 12.5 µg/mL (≈ 31.6 µM) | 6.3 µg/mL (≈ 15.9 µM) | 25 µg/mL (≈ 63.2 µM) | 12.5 µg/mL (≈ 31.6 µM) | 12.5 µg/mL (≈ 31.6 µM) | 1.6 µg/mL (≈ 4.05 µM) | 0.8 µg/mL (≈ 2.02 µM) | 12.5 µg/mL (≈ 31.6 µM) |
| CC[C@H](C)[C@H](NC(=O)c1ccc(C#Cc2ccc(CNCCN(C)C)cc2)cc1)C(=O)NO [Compound 116] | 25 µg/mL (≈ 55.5 µM) | 25 µg/mL (≈ 55.5 µM) | 3.1 µg/mL (≈ 6.88 µM) | 1 µg/mL (≈ 2.22 µM) | 25 µg/mL (≈ 55.5 µM) | 25 µg/mL (≈ 55.5 µM) | 0.8 µg/mL (≈ 1.78 µM) | 0.4 µg/mL (≈ 0.888 µM) | 3.1 µg/mL (≈ 6.88 µM) |
| CC(C)[C@H](NC(=O)c1ccc(C#Cc2ccc(CNC3CC3)cc2)cc1)C(=O)NO [Compound 92] | 0.8 µg/mL (≈ 1.97 µM) | ≤ 0.1 µg/mL | ≤ 0.1 µg/mL | 0.2 µg/mL (≈ 0.493 µM) | ≤ 0.1 µg/mL | 0.2 µg/mL (≈ 0.493 µM) | ≤ 0.1 µg/mL | ≤ 0.1 µg/mL | ≤ 0.1 µg/mL |
| CC(C)[C@H](NC(=O)c1ccc(C#Cc2ccc(CN(C)Cc3ccccc3)cc2)cc1)C(=O)NO [Compound 105] | 6.3 µg/mL (≈ 13.4 µM) | 3.1 µg/mL (≈ 6.6 µM) | 0.8 µg/mL (≈ 1.7 µM) | 6.3 µg/mL (≈ 13.4 µM) | 3.1 µg/mL (≈ 6.6 µM) | 3.1 µg/mL (≈ 6.6 µM) | 0.2 µg/mL (≈ 0.426 µM) | ≤ 0.1 µg/mL | 0.8 µg/mL (≈ 1.7 µM) |
